Measured values published in article PMC10342010, “Djakonoviosides A, A1, A2, B1–B4 — Triterpene Monosulfated Tetra- and Pentaosides from the Sea Cucumber Cucumaria djakonovi: The First Finding of a Hemiketal Fragment in the Aglycones; Activity against Human Breast Cancer Cell Lines” (International Journal of Molecular Sciences, 2023).
Structures can show the parent of a compound that is named as a salt.

Legend:
[1] = Cytotoxic activity (MTS assay); type: cell-based, human; conditions: human
Procedure: (§1) Then, the cells were incubated with 10 µL MTS ([3-(4,5-dimethylthiazol-2-yl)-5-(3-carboxymethoxyphenyl)-2-(4-sulfophenyl)-2H-tetrazolium) for 4 h, and the absorbance in each well was determined at 490/630 nm with a PHERA star FS plate reader (BMG Labtech, Ortenberg, Germany). The experiments were conducted in triplicate.

human erythrocytes = test: Hemolytic activity; type: cell-based; conditions: for ED50, Erythrocytes: 1 h incubation at 37 °C, 50% hemolysis
Procedure: Erythrocytes were obtained from human blood (AB(IV) Rh+) by centrifugation with phosphate-buffered saline (PBS) (pH 7.4) at 4 °C for 5 min by 450 g on a LABOFUGE 400R centrifuge (Heraeus, Hanau, Germany) three times. Then, the erythrocytes residue was resuspended in ice cold phosphate saline buffer (pH 7.4) to a final optical density of 1.5 at 700 nm and kept on ice. For the hemolytic assay, 180 µL of erythrocyte suspension was mixed with 20 µL of test compound solution, as well as control, chitonoidoside L [33], in V-bottom 96-well plates. After 1 h of incubation at 37 °C, the plates were exposed to centrifugation for 10 min at 900 g in a laboratory LMC-3000 centrifuge (Biosan, Riga, Latvia). Then, 100 µL of supernatant was carefully decanted and transferred into new flat plates. The values of the lysis of the erythrocytes were found by measuring the concentration of hemoglobin in the supernatant with a Multiskan FC microplate photometer (Thermo Fisher Scientific, Waltham, MA, USA); λ = 570 nm. […] All the experiments were carried out in triple repetitions; p < 0.01.

[2] = Cytotoxic activity (MTT assay); type: cell-based, human; conditions: human
Procedure: (§2) After incubation, the glycosides with medium were replaced by 100 μL of fresh medium. Then, 10 μL of MTT (3-(4,5-dimethylthiazol-2-yl)-2,5-diphenyltetrazolium bromide) (Sigma-Aldrich, St. Louis, MO, USA) stock solution (5 mg/mL) was added to each well, followed by incubation of the microplate for 4 h. After this procedure, 100 μL of SDS-HCl solution (1 g SDS/10 mL d-H2O/17 μ[…] HCl) was added to each well and incubated for 18 h. The absorbance of the converted dye formazan was determined with a Multiskan FC microplate photometer (Thermo Fisher Scientific, Waltham, MA, USA) at 570 nm.

MDA-MB-231 cells [3] = test: Colony formation (clonogenic) assay; type: cell-based, human; conditions: Homo sapiens; MDA-MB-231, concentration 2 μM; read-out: Inhibition of colony growth, % of the control
Procedure: The influence of glycosides on the proliferation of MDA-MB-231 cells was analyzed by clonogenic assay. Briefly, MDA-MB-231 cells were cultured on 6-well plates at a density of 1 × 10^3 cells per well in control media (MEM media, 10% FBS, 10,000 U/mL of penicillin and 10,000 μg/mL of streptomycin) or in media supplemented with different concentrations of glycosides. Cells were incubated for one week at 37 °C with 5% CO2 until the cells in the control plates formed colonies that were visible to the eye and were of a substantial size (at least 50 cells per colony). For fixation and staining, the media were removed and the cells were washed twice with PBS. The colonies were fixed with methanol for 25 min, then washed with PBS and stained with 0.5% crystal violet solution for 25 min at room temperature. The plates were then washed with water and air dried.

MDA-MB-231 cells [4] = test: Wound scratch migration assay; type: cell-based, human
From the text: To analyze the influence of the tested compounds on tumor cell migration, MDA-MB-231 cells attached to the plate’s plastic bottom were separated by a silicone insert from special migration plates (Culture-insert 2 Well 24, ibiTreat); then, the insert was removed, leaving a gap of 500 ± 50 μm (according to the manufacturer’s data) between the cells. The cells were washed twice by PBS to remove cell debris and floating cells and loaded with a fluorescent probe, a (5,6)-carboxyfluorescein succinimidyl ester (CFDA SE) dye (LumiTrace CFDA SE kit, Lumiprobe, Moscow, Russia). The initial solution of CFDA SE at a concentration of 5 mM in DMSO was dissolved in PBS to prepare a 10 μM solution and was added to the cells for 5 min at 37 °C; then, the cells were washed twice with PBS, and fresh culture medium was added. After that, the cells were treated with various concentrations of glycosides and left for 8 and 24 h. Cells treated with culture medium only were used as control. Cell migration into the wound area was then observed under a fluorescence microscope (MIB-2-FL, LOMO, Saint Peterburg, Russia) with an objective ×10 magnification.

cancer cell lines = test: Cytotoxic action against cancer cell lines (summary in words); type: cell-based, human; conditions: cancer cell lines HL-60, MCF-7, T-47D, MDA-MB-231
Procedure: All the substances were tested in concentrations from 0.1 µM to 50 µM. Cisplatin was used as positive control. The cell suspension (180 µL) and solutions (20 µL) of tested glycosides in different concentrations were injected in wells of 96-well plates (MCF-7, T-47D, MDA-MB-231, and HEK293—7 × 10^3 cells/well) and incubated at 37 °C for 24 h in an atmosphere with 5% CO2. Glycosides 1 and 2, cucumarioside A0-1, and okhotoside A1-1 at concentrations of 1.25–10.0 μM were incubated with MDA-MB-231 cells at 37 °C for 24, 48, and 72 h in an atmosphere with 5% CO2. After incubation, the glycosides with medium were replaced by 100 µL of fresh medium. Then, 10 µL of MTT (3-(4,5-dimethylthiazol-2-yl)-2,5-diphenyltetrazolium bromide) (Sigma-Aldrich, St. Louis, MO, USA) stock solution (5 mg/mL) was added to each well, followed by incubation of the microplate for 4 h. After this procedure, 100 µL of SDS-HCl solution (1 g SDS/10 mL d-H2O/17 µL 6 N HCl) was added to each well and incubated for 18 h. The absorbance of the converted dye formazan was determined with a Multiskan FC microplate photometer (Thermo Fisher Scientific, Waltham, MA, USA) at 570 nm. […] The experiments were conducted in triplicate; p < 0.05.
as §1, with “triplicate. The results were presented as the percentage of inhibition that produced a reduction in absorbance after tested glycosides treatment compared to the nontreated cells (negative control); p < 0.01.” for “triplicate.”

[5] = Cytotoxic activity (MTT assay); type: cell-based, human; conditions: human; remark: listed apart in the source
Procedure: as §2

[6] = Cytotoxic activity (MTT assay); type: cell-based, human; conditions: human; remark: listed apart in the source
Procedure: as §2

[7] = Cytotoxic activity (MTT assay); type: cell-based, human; conditions: human; remark: listed apart in the source
Procedure: as §2

| SMILES | IC50 at 24 h [1] [µM] | ED50, Erythrocytes (human erythrocytes) [µM] | EC50 at 48 h [2] [µM] | EC50 at 72 h [2] [µM] | inhibition at 2 µM (MDA-MB-231 cells [3]) [%] | Blockage of migration in relation to control (MDA-MB-231 cells [4]; MDA-MB-231, 1 μM, 24 h) [%] | Hemolytic action (in words) (human erythrocytes) | Activity against cancer cells (in words) (cancer cell lines) | IC50 at 24 h [5] [µM] | IC50 at 24 h [2] [µM] | IC50 at 24 h [6] [µM] | IC50 at 24 h [7] [µM] | inhibition at 2 µM (MDA-MB-231 cells [4]; Homo sapiens, MDA-MB-231, 2 μM, 24 h incubation, read-out: Inhibition of migration as compared to control) [%] |
| --- | --- | --- | --- | --- | --- | --- | --- | --- | --- | --- | --- | --- | --- |
| CO[C@@H]1[C@@H](O)[C@H](O[C@@H]2[C@@H](O)[C@H](O[C@H]3[C@H](O)[C@@H](O)[C@H](O[C@H]4[C@H](O[C@H]5CC[C@]6(C)[C@@H]7CCC89C(=O)O[C@@](C)(C[C@@H](O)CC(C)C)[C@H]8[C@@H](OC(C)=O)C[C@@]9(C)C7=CC[C@H]6C5(C)C)OC[C@@H](OS(=O)(=O)O)[C@@H]4O)O[C@@H]3C)OC[C@H]2O)O[C@H](CO)[C@H]1O (stereo partly drawn) [djakonovioside A (1), 3β-O-[3-O-methyl-β-D-glucopyranosyl-(1→3)-β-D-xylopyranosyl-(1→4)-β-D-quinovopyranosyl-(1→2)-4-O-sodium sulfate-β-D-xylopyranosyl}-16β-acetoxy,23S-hydroxyholost-7-en] | 6.05 ± 0.17 | 2.46 ± 0.22 | 4.45 | 3.77 | 41.4 ± 3.16 | 79.92 ± 0.27 | – | – | – | – | – | – | – |
| COC1C(O)C(CO)OC(OC2C(O)COC(OC3C(C)OC(OC4C(OC5CCC6(C)C7CCC89C(=O)OC%10(C)CC(O)(CC(C)C)OC(CC8(C)C7=CCC6C5(C)C)C%109)OCC(OS(=O)(=O)O)C4O)C(OC4OCC(O)C(O)C4O)C3O)C2O)C1O [djakonovioside B2 (5), 3β-O-{3-O-methyl-β-D-glucopyranosyl-(1→3)-β-D-xylopyranosyl-(1→4)-[(1→2)-β-D-xylopyranosyl]-β-D-quinovopyranosyl-(1→2)-4-O-sodium sulfate-β-D-xylopyranosyl}-holost-7-en-23R,16β-hemiketal] | 38.6 ± 1.05 | 16.34 ± 0.34 | – | – | – | – | moderately hemolytic | inactive | – | – | – | – | – |
| COC1C(O)C(CO)OC(OC2C(O)COC(OC3C(C)OC(OC4C(OC5CCC6(C)C7CCC89C(=O)OC%10(C)C(O)C(O)(CC(C)C)OC(CC8(C)C7=CCC6C5(C)C)C%109)OCC(OS(=O)(=O)O)C4O)C(OC4OCC(O)C(O)C4O)C3O)C2O)C1O [djakonovioside B4 (7), 3β-O-{3-O-methyl-β-D-glucopyranosyl-(1→3)-β-D-xylopyranosyl-(1→4)-[(1→2)-β-D-xylopyranosyl]-β-D-quinovopyranosyl-(1→2)-4-O-sodium sulfate-β-D-xylopyranosyl}-22S-hydroxyholost-7-en-23R,16β-hemiketal] | > 50 | 17.07 ± 1.15 | – | – | – | – | moderately hemolytic | inactive | > 50 | > 50 | > 50 | > 50 | – |
| CO[C@@H]1[C@@H](O)[C@H](O[C@@H]2[C@@H](O)[C@H](O[C@H]3[C@H](O)[C@@H](O)[C@H](O[C@H]4[C@H](O[C@H]5CC[C@]6(C)[C@@H]7CCC89C(=O)O[C@@](C)([C@H](O)C(=O)CC(C)C)[C@H]8[C@@H](OC(C)=O)C[C@@]9(C)C7=CC[C@H]6C5(C)C)OC[C@@H](OS(=O)(=O)O)[C@@H]4O)O[C@@H]3C)OC[C@H]2O)O[C@H](CO)[C@H]1O (stereo partly drawn) [djakonovioside A1 (2), 3β-O-[3-O-methyl-β-D-glucopyranosyl-(1→3)-β-D-xylopyranosyl-(1→4)-β-D-quinovopyranosyl-(1→2)-4-O-sodium sulfate-β-D-xylopyranosyl}-16β-acetoxy,22S-hydroxy,23-oxo-holost-7-en] | 4.44 ± 0.37 | 2.26 ± 0.25 | 7.33 | 6.25 | 19.2 ± 0.25 | – | – | – | – | – | – | – | 79.5 ± 9.12 |
| COC1C(O)C(CO)OC(OC2C(O)COC(OC3C(C)OC(OC4C(OC5CCC6(C)C7CCC89C(=O)OC%10(C)C(O)C(O)(CC(C)C)OC(CC8(C)C7=CCC6C5(C)C)C%109)OCC(OS(=O)(=O)O)C4O)C(O)C3O)C2O)C1O [djakonovioside A2 (3), 3β-O-[3-O-methyl-β-D-glucopyranosyl-(1→3)-β-D-xylopyranosyl-(1→4)-β-D-quinovopyranosyl-(1→2)-4-O-sodium sulfate-β-D-xylopyranosyl}-22S-hydroxyholost-7-en-23R,16β-hemiketal] | > 50 | 30.86 ± 0.97 | – | – | – | – | moderately hemolytic | inactive | > 50 | > 50 | > 50 | > 50 | – |
| CO[C@@H]1[C@@H](O)[C@H](O[C@@H]2[C@@H](O)[C@H](O[C@H]3[C@H](O)[C@@H](O[C@@H]4OC[C@@H](O)[C@H](O)[C@H]4O)[C@H](O[C@H]4[C@H](O[C@H]5CC[C@]6(C)[C@@H]7CCC89C(=O)O[C@@](C)([C@H](O)C(=O)CC(C)C)[C@H]8[C@@H](OC(C)=O)C[C@@]9(C)C7=CC[C@H]6C5(C)C)OC[C@@H](OS(=O)(=O)O)[C@@H]4O)O[C@@H]3C)OC[C@H]2O)O[C@H](CO)[C@H]1O (stereo partly drawn) [djakonovioside B1 (4), 3β-O-{3-O-methyl-β-D-glucopyranosyl-(1→3)-β-D-xylopyranosyl-(1→4)-[(1→2)-β-D-xylopyranosyl]-β-D-quinovopyranosyl-(1→2)-4-O-sodium sulfate-β-D-xylopyranosyl}-16β-acetoxy,22S-hydroxy,23-oxo-holost-7-en] | 20.1 ± 0.8 | 6.03 ± 0.47 | – | – | – | – | – | – | – | – | – | – | – |
